Target: T1, CCK-A receptor (Rattus norvegicus, UniProt P30551)
T1 construct: from tissue; host or cells: pancreas membranes of Sprague-Dawley rat
T1 sequence (P30551 1-444): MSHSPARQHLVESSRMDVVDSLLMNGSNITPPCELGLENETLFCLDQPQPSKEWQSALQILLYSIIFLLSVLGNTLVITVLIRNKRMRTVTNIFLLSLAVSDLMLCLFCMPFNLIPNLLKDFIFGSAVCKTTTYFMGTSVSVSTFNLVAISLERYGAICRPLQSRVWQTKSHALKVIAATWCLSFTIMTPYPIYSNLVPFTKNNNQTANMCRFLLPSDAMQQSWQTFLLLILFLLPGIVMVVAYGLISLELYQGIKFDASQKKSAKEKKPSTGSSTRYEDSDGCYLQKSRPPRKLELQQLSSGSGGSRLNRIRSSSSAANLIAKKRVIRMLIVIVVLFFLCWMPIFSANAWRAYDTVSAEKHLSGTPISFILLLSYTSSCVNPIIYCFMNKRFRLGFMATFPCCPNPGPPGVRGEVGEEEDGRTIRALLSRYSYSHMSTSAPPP
Experiment: CCK-A receptor binding assay (displacement of 3H-L-364,718 from rat pancreas membranes)
Design: species or system Sprague-Dawley rat
Details: 3H-L-364,718 0.2 nM, 37° C., 30 min, read-out: In vitro Binding Data IC50 CCK
Description: Washer Buffer (for use with Brandel Cell Harvester):
30 liters of 50 mM Tris, ph 7.7: Dissolve 181.7 g. Tris base in 4 1. deionized water at room temperature. Adjust pH to 7.7 with 6 N HCl and Q.S. to 30 1.
50 mM Tris-Cl, 5 mM MgCl2, 5 mM dithio-thretiol, 0.14 mg/ml bacitracin, and 2 mg/ml bovine serum albumin.
1 liter of 5X stock buffer:
30.28 g. Tris base per 800 ml D.I. water 5.09 g. MgCl2 6 H2 O, pH to 7.7 at room temperature with 6N HCl and Q.S. 1 liter, store at 4° C.
250 ml working buffer kept on ice:
50 ml of 5X stock buffer 0.1928 g. dithiothretiol (5 mM), 35 mg bacitracin (0.14 mg/ml), and 0.5 g. BSA (2mg/ml).
Unlabeled L-364,718(nonpeptide ligand):
Unlabeled L-364,718 (300 nM final concentration) is used to define nonspecific binding. A 3 mM solution is made in absolute ethanol and stored in a scintillation vial at -70° C. Aliquots are diluted 100-fold in the assay.
A Sprague-Dawley rat is sacrificed by asphyxiation with carbon dioxide and the pancreas removed. The tissue is immersed in cold wash buffer and carefully trimmed of fat, connective tissue, blood vessels, blotted and weighed. The tissue is homogenized in a Sorvall SS-34 centrifuge tube in 50 volumes of wash buffer using a Polytron at setting 7 for 15 seconds. The tissue is centrifuged (Sorvall SS-34) at 19,000 rpm for 10 min. The supernatant is poured off and the pellet resuspended in sufficient buffer to obtain a contraction of 40 mg tissue wet weight/ml. Separate aliquots (2,3ml) are placed in each of 8 centrifuge tubes and centrifuged as before. The supernatants are poured off and the pellets stored at -70° C. Stored pellets are sufficient for the assay of 160 tubes and are stable for 1-2 months.
During the assay the stored membranes are resuspended in 40 ml of assay buffer by scraping the pellet off the wall of the centrifuge tube and washing it into a teflon-glass homogenizer. Membranes are resuspended by 5 passes with the teflon pestle and the membranes stored on ice until ready for use.
Preparation of Compounds:
Compounds are prepared in DMSO (dimethyl sulfoxide) or in assay buffer. The majority of structures active as CCK antagonists generally require DMSO for complete solubility. Approximately 2-3 mg of compound is weighed directly into a 13×100 mm test tube and sufficient DMSO added to obtain a working stock solution at a concentration 100 fold greater than the highest concentration being tested in the assay. A total of 10 μl of each concentration of drug is added into a final volume of 1 ml to yield a 100 fold dilution of the, working stock solution. Control binding tubes ("totals and nonspecifics") are also treated with 10 μl DMSO.
^3 H-L-364,718 is obtained from New England Nuclear (Cat. #971) and is used as supplied. The final assay concentration of ^3 H-L-364,718 in assay buffer should be 0.2 nM in a final assay volume of 1 ml. ^3 H-L-364,718 (0.2 pmol) is added into the assay in a volume of 25 μl (8 nM working stock solution). The required dilution (usually>1000 fold) is obtained by dividing the working stock concentration into the concentration of the specific lot.
Samples are prepared in triplicate and a "total" (buffer addition) and "nonspecific" (300 nM unlabeled L-364,718) set of tubes included in each set of 24 tubes. The remaining 6 sets of triplicates are used either for screening or IC50 determinations. The order of addition is drugs-DMSO, buffer, unlabeled L-364,718, ^3 H-L-364,718, and to start the assay, membranes.
While tubes are incubating a shaking water bath at 37° C. for 30 min Brandel deposit/dispense filters are presoaked in wash buffer. Following the end of the incubation, sets of 24 tubes are rapidly washed with assay buffer as follows. Assay buffer is added to the incubation tubes to the height of the uppermost cross support in the standard Brandel test tube rack and the contents immediately aspirated. This process is repeated twice more, the filter removed, marked and the next set of 24 tubes processed. […]

IC50 | SMILES
10 to 25 µM | CCOC(=O)c1cccc(NC(=O)[C@H]2Cc3c([nH]c4ccccc34)CN2C(=O)OCc2ccccc2)c1 [Example 16, ethyl 3-N-[(3R)-2-carbobenzoxy-1,2,3,4-tetrahydro-9H-pyrido[3,4-b]indole-3-carboxyl]aminobenzoate]
> 10 µM | CCOC(=O)c1ccccc1NC(=O)[C@H]1Cc2c([nH]c3ccccc23)CN1C(=O)OCc1ccccc1 [Example 17]
25 µM | O=C(Nc1ccccc1C(=O)N1CCCC1)[C@H]1Cc2c([nH]c3ccccc23)CN1C(=O)OCc1ccccc1 [Example 18, pyrrolidine-2-N-[(3R)-2-carbobenzoxy-1,2,3,4-tetrahydro-9H-pyrido-[3,4-b]indole-3-carboxyl]aminobenzamide]
20 µM | O=C(Nc1ccccc1C(=O)N1CCCC1)[C@@H]1Cc2c([nH]c3ccccc23)CN1C(=O)OCc1ccccc1 [Example 19, pyrrolidine-2-N-[(3S)-2-carbobenzoxy-1,2,3,4-tetrahydro-9H-pyrido[3,4-b]indole-3-carboxyl]aminobenzamide]
> 30 µM | O=C(Nc1ccccc1C(=O)N1CCCC1)[C@H]1Cc2c([nH]c3ccccc23)CN1C(=O)c1ccc2ccccc2c1 [Example 20, pyrrolidine-2-N-[(3R)-2-(2-naphthoyl)-1,2,3,4-tetrahydro-9H-pyrido[3,4-b]indole-3-carboxyl]aminobenzamide]
> 10 µM | CCCCN(CCCC)C(=O)c1ccccc1NC(=O)[C@H]1Cc2c([nH]c3ccccc23)CN1C(=O)OCc1ccccc1 [Example 22]
> 10 µM | CCOC(=O)c1ccccc1NC(=O)[C@@H]1Cc2c([nH]c3ccccc23)CN1C(=O)OCc1ccccc1 [Example 23, ethyl 2-N-[(3S)-2-carbobenzoxy-1,2,3,4-tetrahydro-9H-pyrido[3,4-b]indole-3-carboxyl]aminobenzoate]
36 µM | CC[C@H](C)[C@H](NC(=O)[C@H]1Cc2c([nH]c3ccccc23)CN1C(=O)Nc1ccc(Cl)c(Cl)c1)C(=O)N[C@@H](CC(=O)O)C(N)=O [Example 24, N-[(3R)-2-(3,4-dichlorophenylcarbamoyl)-1,2,3,4-tetrahydro-9H-pyrido[3,4-b]indol-3-yl]carbonyl-L-isoleucyl-L-aspartic acid amide]
100 µM | NC(=O)[C@H](CC(=O)O)NC(=O)C1(NC(=O)[C@H]2Cc3c([nH]c4ccccc34)CN2C(=O)Nc2ccc(Cl)c(Cl)c2)CCCC1 [Example 26]
14 µM | CC(C)C[C@H](NC(=O)[C@H]1Cc2c([nH]c3ccccc23)CN1C(=O)Nc1ccc(Cl)c(Cl)c1)C(=O)NCCC(=O)O [Example 27]

More lines, now with the values behind:

SMILES | IC50
CC(C)C[C@H](NC(=O)[C@H]1Cc2c([nH]c3ccccc23)CN1)C(=O)N[C@@H](CC(=O)O)C(N)=O [Example 1, N-[(3R)-1,2,3,4-tetrahydro-9H-pyrido[3,4-b]indole-3-carboxyl]-L-leucyl-L-aspartic acid amide] | > 300 µM
CC(C)C[C@H](NC(=O)[C@@H]1Cc2c([nH]c3ccccc23)CN1)C(=O)N[C@@H](CC(=O)O)C(N)=O [Example 2, N-[(3S)-1,2,3,4-tetrahydro-9H-pyrido[3,4-b]indole-3-carboxyl]-L-leucyl-L-aspartic acid amide] | > 300 µM
NC(=O)[C@H](CC(=O)O)NC(=O)[C@H]1Cc2c([nH]c3ccccc23)CN1 [Example 3, N-[(3R)-1,2,3,4-tetrahydro-9H-pyrido[3,4-b]-indole-3-carboxyl]-L-aspartic acid amide] | > 300 µM
NC(=O)[C@H](CC(=O)O)NC(=O)[C@@H]1Cc2c([nH]c3ccccc23)CN1 [Example 4, N-[(3S)-1,2,3,4-tetrahydro-9H-pyrido[3,4-b]indole-3-carboxyl]-L-aspartic amide] | > 300 µM
O=C(NCC(c1ccccc1)c1ccccc1)[C@H]1Cc2c([nH]c3ccccc23)CN1 [Example 5, (3R)-3-(2,2'-diphenyl)ethylcarbamoyl-1,2,3,4-tetrahydro-9H-pyrido[3,4-b]indole] | 50 to 60 µM
O=C(NC(c1ccccc1)c1ccccc1)[C@H]1Cc2c([nH]c3ccccc23)CN1 [Example 6, (3R)-3-diphenylmethylcarbamoyl-1,2,3,4-tetrahydro-9H-pyrido[3,4-b]indole] | 62 µM
NC(=O)[C@H](CC(=O)O)NC(=O)[C@H]1Cc2c([nH]c3ccccc23)CN1C(=O)c1ccccc1 [Example 8, N-[(3R)-2-benzoyl-1,2,3,4-tetrahydro-9H-pyrido[3,4-b]indole-3-carboxyl]-L-aspartic acid amide] | 82 µM
CC(C)C[C@H](NC(=O)[C@H]1Cc2c([nH]c3ccccc23)CN1C(=O)c1ccccc1)C(=O)N[C@@H](CC(=O)O)C(N)=O [Example 9, N-[(3R)-2-benzoyl-1,2,3,4-tetrahydro-9H-pyrido[3,4-b]indole-3-carboxyl]-L-leucyl-L-aspartic acid amide] | 230 µM
CC(C)C[C@H](NC(=O)[C@H]1Cc2c([nH]c3ccccc23)CN1C(=O)c1ccc2ccccc2c1)C(=O)N[C@@H](CC(=O)O)C(N)=O [Example 10, N-[(3R)-2-(2-naphthoyl)-1,2,3,4-tetrahydro-9H-pyrido[3,4-b]indole-3-carboxyl]-L-leucyl-L-aspartic acid amide] | 25 µM
Cc1cccc(NC(=O)N2Cc3[nH]c4ccccc4c3C[C@@H]2C(=O)N[C@@H](CC(C)C)C(=O)N[C@@H](CC(=O)O)C(N)=O)c1 [Example 11, N-[(3R)-2-(3-methylphenylcarbamoyl)-1,2,3,4-tetrahydro-9H-pyrido[3,4-b]indole-3-carboxyl]-L-leucyl-L-aspartic acid amide] | 34 µM
Cc1cccc(NC(=O)N2Cc3[nH]c4ccccc4c3C[C@H]2C(=O)N[C@@H](CC(C)C)C(=O)N[C@@H](CC(=O)O)C(N)=O)c1 [Example 12, N-[(3S)-2-(3-methylphenylcarbamoyl)-1,2,3,4-tetrahydro-9H-pyrido[3,4-b]indole-3-carboxyl]-L-leucyl-L-aspartic acid amide] | 170 µM
CCCCCN(CCCCC)C(=O)[C@H]1Cc2c([nH]c3ccccc23)CN1C(=O)Nc1cccc(C)c1 [Example 13, (3R)-3-(N,N-dipentylcarbamoyl)-2-(3-methylphenylcarbamoyl)-1,2,3,4-tetrahydro-9H-pyrido[3,4-b]indole] | 10 µM
CC(C)C[C@H](NC(=O)[C@H]1Cc2c([nH]c3ccccc23)CN1C(=O)Nc1ccccc1)C(=O)N[C@@H](CC(=O)O)C(N)=O [Example 14, N-[(3R)-2-phenylcarbamoyl-1,2,3,4-tetrahydro-9H-pyrido[3,4-b]indole-3-carboxyl]-L-leucyl-L-aspartic acid amide] | > 100 µM
CCOC(=O)c1ccc(NC(=O)[C@H]2Cc3c([nH]c4ccccc34)CN2C(=O)OCc2ccccc2)cc1 [Example 15, ethyl 4-N-[(3R)-2-carbobenzoxy-1,2,3,4-tetrahydro-9H-pyrido[3,4-b]indole-3-carboxyl]aminobenzoate] | 9 µM

— patent publication US5162336A, “Tetrahydro-pyrido-indoles as cholecystokinin and gastrin antagonists” (Rhone-Poulenc Rorer Pharmaceuticals Inc., priority 1990, dated 1992)
